Measured values published in EP0249401A1, “Antianemic agent” (YAMANOUCHI PHARMACEUTICAL CO. LTD., priority 1986, dated 1987).

Assay: Acute toxicity (LD50) on intraperitoneal injection into mice
Settings: mouse, in vivo, ip

CC(C)OC(=O)CNC(=O)[C@H](CS)NC(=O)CC[C@H](N)C(=O)O [isopropyl ester, isopropyl y-L-glutamyl-L-cysteinylglycinate]
LD50: ~5300 mg/kg
